Measurements: patent publication US9242933B2 (AbbVie Deutschland GmbH & Co. KG, priority 2007, dated 2016)

Columns and labels:
mGlu3 = mGlu3 (Homo sapiens, UniProt Q14832); conditions: agonist; cited from earlier work
human mGlu2 receptor = target: T1, human mGlu2 receptor (Homo sapiens, UniProt Q14416); assay: FLIPR intracellular Ca2+ assay, potentiation of glutamate response in HEK293 clone expressing mGlu2 receptor, rGLAST and Galpha16; assay type: cell-based; conditions: 1 μM glutamate added ten minutes after test compound, HEK293 cells with human mGlu2, rGLAST, Galpha16, read-out: EC50 values of potentiation effect to glutamate
T1 construct: expressed in transfected cells; host or cells: HEK293
How it was run: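 HEK293 cells stably expressing human mGlu2, rat GLAST and Gα16 were loaded with 2 µM Fluo-4 AM and intracellular Ca2+ read by FLIPR. Compound added alone (agonism), then with submaximal glutamate (e.g. 1 µM; potentiation). Background-subtracted peaks normalized to 100 µM glutamate response; EC50 from four-parameter fit.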

T1 sequence (Q14416 19-872): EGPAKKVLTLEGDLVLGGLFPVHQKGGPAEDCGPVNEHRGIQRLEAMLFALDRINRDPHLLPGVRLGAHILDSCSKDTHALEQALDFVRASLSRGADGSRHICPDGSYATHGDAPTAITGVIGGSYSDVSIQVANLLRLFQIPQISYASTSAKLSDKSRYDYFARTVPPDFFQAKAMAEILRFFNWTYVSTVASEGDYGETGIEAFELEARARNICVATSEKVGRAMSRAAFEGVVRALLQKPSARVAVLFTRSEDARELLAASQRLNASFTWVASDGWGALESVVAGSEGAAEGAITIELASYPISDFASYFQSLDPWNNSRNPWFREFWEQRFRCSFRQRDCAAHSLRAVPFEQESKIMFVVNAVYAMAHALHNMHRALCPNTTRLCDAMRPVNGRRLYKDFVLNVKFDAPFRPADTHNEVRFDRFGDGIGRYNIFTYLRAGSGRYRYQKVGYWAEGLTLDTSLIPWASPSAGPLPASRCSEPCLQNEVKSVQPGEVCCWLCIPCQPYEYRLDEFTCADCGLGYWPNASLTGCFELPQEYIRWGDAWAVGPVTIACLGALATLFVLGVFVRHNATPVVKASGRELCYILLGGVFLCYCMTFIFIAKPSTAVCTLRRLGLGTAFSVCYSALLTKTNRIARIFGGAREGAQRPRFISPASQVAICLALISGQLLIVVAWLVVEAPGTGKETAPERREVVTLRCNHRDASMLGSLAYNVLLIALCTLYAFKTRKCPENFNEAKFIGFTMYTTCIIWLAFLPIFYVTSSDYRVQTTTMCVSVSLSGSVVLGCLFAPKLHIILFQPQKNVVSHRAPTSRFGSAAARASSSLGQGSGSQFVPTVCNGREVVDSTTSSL
Sequence of mGlu3 (Q14832 23-879): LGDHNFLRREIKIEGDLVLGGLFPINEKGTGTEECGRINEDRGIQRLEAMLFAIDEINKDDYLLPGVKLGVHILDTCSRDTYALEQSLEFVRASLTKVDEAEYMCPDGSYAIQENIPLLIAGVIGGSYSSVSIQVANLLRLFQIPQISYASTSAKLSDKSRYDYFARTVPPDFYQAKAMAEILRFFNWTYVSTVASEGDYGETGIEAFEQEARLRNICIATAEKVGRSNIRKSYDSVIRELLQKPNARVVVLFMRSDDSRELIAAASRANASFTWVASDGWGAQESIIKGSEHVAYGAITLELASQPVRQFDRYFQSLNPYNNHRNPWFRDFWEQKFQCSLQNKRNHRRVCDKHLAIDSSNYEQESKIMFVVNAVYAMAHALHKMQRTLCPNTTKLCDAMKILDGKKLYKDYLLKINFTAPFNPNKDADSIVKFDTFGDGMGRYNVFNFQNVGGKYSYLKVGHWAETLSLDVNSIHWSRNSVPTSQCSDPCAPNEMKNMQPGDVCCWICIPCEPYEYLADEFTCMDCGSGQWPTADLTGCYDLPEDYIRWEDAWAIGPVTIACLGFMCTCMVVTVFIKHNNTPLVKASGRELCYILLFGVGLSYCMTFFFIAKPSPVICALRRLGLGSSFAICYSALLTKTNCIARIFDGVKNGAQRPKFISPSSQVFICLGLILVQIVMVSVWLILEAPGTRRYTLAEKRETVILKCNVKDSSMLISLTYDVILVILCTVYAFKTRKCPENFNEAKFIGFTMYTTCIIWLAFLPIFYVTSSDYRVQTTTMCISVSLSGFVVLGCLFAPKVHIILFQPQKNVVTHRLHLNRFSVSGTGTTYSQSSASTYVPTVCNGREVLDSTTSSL

| SMILES | EC50 (mGlu3) | EC50 (human mGlu2 receptor) |
| --- | --- | --- |
| N[C@@]1(C(=O)O)CC[C@H]2[C@H](C(=O)O)[C@H]21 [LY354740] | 20 nM |  |
| N[C@@]1(C(=O)O)CO[C@H]2[C@H](C(=O)O)[C@H]21 [LY379268] | 5 nM |  |
| CCCC(=O)c1cccc(NCc2n[nH]cc2-c2ccc(CC)cc2)c1 [Example 515, 1-(3-{[4-(4-Ethyl-phenyl)-1H-pyrazol-3-ylmethyl]-amino}-phenyl)-butan-1-one] |  | 1000 to 10000 nM |
| Cc1cc(C)nc(NCc2c[nH]nc2-c2ccc(C(F)(F)F)cc2)c1 [Example 341, (4,6-Dimethyl-pyridin-2-yl)-[3-(4-trifluoromethyl-phenyl)-1H-pyrazol-4-ylmethyl]-amine] |  | 1000 to 10000 nM |
| CCCC(=O)c1ccc(OCc2c[nH]nc2-c2ccc(C(F)(F)F)cc2)cc1 [Example 494, 1-{4-[3-(4-Trifluoromethyl-phenyl)-1H-pyrazol-4-ylmethoxy]-phenyl}-butan-1-one] |  | < 1000 nM |
| CCCC(=O)c1ccc(NCc2c[nH]nc2-c2ccc(Cl)cc2)cc1OC(CC)CC [Example 437, 1-[4-{[3-(4-Chloro-phenyl)-1H-pyrazol-4-ylmethyl]-amino}-2-(1-ethyl-propoxy)-phenyl]-butan-1-one] |  | 1000 to 10000 nM |
| CCCC(=O)c1ccc(NCc2sc(Cl)nc2Cl)cc1 [Example 250, 1-{4-[(2,4-Dichloro-thiazol-5-ylmethyl)-amino]-phenyl}-butan-1-one] |  | 1000 to 10000 nM |
| CCCN1Cc2cc(OCc3c[nH]nc3-c3ccc(C(F)(F)F)cc3)ccc2C1=O [Example 531, 2-Propyl-5-[3-(4-trifluoromethyl-phenyl)-1H-pyrazol-4-ylmethoxy]-2,3-dihydro-isoindol-1-one] |  | < 1000 nM |
| CCC(C)Oc1cccc(N(Cc2c[nH]nc2-c2ccc(C(F)(F)F)cc2)S(=O)(=O)CC(F)(F)F)c1 (stereo not drawn) [Example 456, 2,2,2-Trifluoro-ethanesulfonic acid (3-sec-butoxy-phenyl)-[3-(4-trifluoromethyl-phenyl)-1H-pyrazol-4-ylmethyl]-amide] |  | 1000 to 10000 nM |
| O=C1c2ccc(OCc3c[nH]nc3-c3cccc(F)c3)cc2CN1CCC(F)(F)F [Example 541, 5-[3-(3-Fluorophenyl)-1H-pyrazol-4-ylmethoxy]-2-(3,3,3-trifluoro-propyl)-2,3-dihydro-isoindol-1-one] |  | < 1000 nM |
| CCCC(=O)c1ccc(NCc2c[nH]nc2-c2ccc(F)cc2)cc1 [Example 508, 1-(4-{[3-(4-Fluorophenyl)-1H-pyrazol-4-ylmethyl]-amino}-phenyl)-butan-1-one] |  | < 1000 nM |
| CC(C)(C)c1n[nH]cc1CNc1ccc(OCc2ccccn2)cc1 [Example 285, (3-tert-Butyl-1H-pyrazol-4-ylmethyl)-[4-(pyridin-2-ylmethoxy)-phenyl]-amine] |  | 1000 to 10000 nM |
| CCCC(=O)c1ccc(NCc2ccc3ncccc3c2)cc1 [Example 25, 1-{4-[(Quinolin-6-ylmethyl)amino]phenyl}butan-1-one] |  | 1000 to 10000 nM |
| CCCC(=O)c1ccc(NCc2n[nH]cc2Br)cc1 [Example 522] |  | 1000 to 10000 nM |
| CC(C)(C)c1n[nH]cc1CNc1ccc(OC(F)(F)Cl)cc1 [Example 281, (3-tert-Butyl-1H-pyrazol-4-ylmethyl)-[4-(chloro-difluoro-methoxy)-phenyl]-amine] |  | 1000 to 10000 nM |
| CCCC(=O)c1ccc(NCc2cn(-c3ccccc3)nc2-c2cccnc2)cc1 [Example 222, 1-{4-[(1-Phenyl-3-pyridin-3-yl-1H-pyrazol-4-ylmethyl)-amino]-phenyl}-butan-1-one] |  | 1000 to 10000 nM |
| CCCC(=O)c1ccc(NCc2c[nH]nc2-c2ccc(C)cc2)cc1 [Example 212, 1-{4-[(3-p-Tolyl-1H-pyrazol-4-ylmethyl)-amino]-phenyl}-butan-1-one] |  | < 1000 nM |
| CC(=O)c1ccc(NCc2c[nH]nc2-c2ccc(C(F)(F)F)cc2)cc1 [Example 501, 1-(4-{[3-(4-Trifluoromethyl-phenyl)-1H-pyrazol-4-ylmethyl]-amino}-phenyl)-ethanone] |  | 1000 to 10000 nM |
| CCCC(=O)c1ccc(NCc2csc(-c3ccccc3)n2)cc1 [Example 46, 1-{4-[(2-Phenylthiazol-4-ylmethyl)amino]phenyl}butan-1-one] |  | 1000 to 10000 nM |
| CC(C)(C)c1n[nH]cc1CNc1ccc2c(c1)OCO2 [Example 117, Benzo[1,3]dioxol-5-yl-(3-tert-butyl-1H-pyrazol-4-ylmethyl)-amine] |  | 1000 to 10000 nM |
| CCCC(=O)c1ccc(OCc2n[nH]cc2-c2ccc(OC)cc2)cc1 [Example 520, 1-{4-[4-(4-Methoxy-phenyl)-1H-pyrazol-3-ylmethoxy]-phenyl}-butan-1-one] |  | < 1000 nM |
